{
  "source": "patent US10513519B2",
  "about": "“Solid forms of (1S,4S)-4-(2-(((3S,4R)-3-fluorotetrahydro-2H-pyran-4-yl)amino)-8-((2,4,6-trichlorophenyl)amino)-9H-purin-9-yl)-1-methylcyclohexane-1-carboxamide and methods of their use” (Signal Pharmaceuticals, LLC, priority 2016, dated 2019)",
  "type_in_all_cases": "cell-based",
  "key": {"64 cancer cell lines": {"test_system": "64 cancer cell lines", "assay": "Anti-proliferative activity across a panel of 64 cancer cell lines (CellTiter-Glo)", "procedure": "Prior to testing, cells were grown and expanded in culture flasks to provide sufficient amounts of starting material. Cells were then diluted to the appropriate densities and added directly to the compound-spotted 384-well plates. Cells were allowed to grow for 72 h at 37° C./5% CO2. At the time when compound was added (to), initial cell number was assessed via a viability assay (Cell Titer-Glo) by quantifying the level of luminescence generated by ATP present in viable cells. After 72 h, cell viability of compound-treated cells was assessed via Cell Titer-Glo and luminescence measurement. The apoptotic response to Compound 1 was assessed by quantifying the activities of caspase 3 and caspase 7 (Caspase 3/7-Glo) in treated cells and DMSO control cells.\nCells were treated with DMSO or increasing concentrations of Compound 1 for 72 h. Proliferation was measured using CellTiter-Glo as described."}, "SW48 (colo) cells": {"test_system": "SW48 (colo) cells", "assay": "Long term colony assay, SW48", "details": "SW48, up to 8 weeks", "procedure": "(§1) Compound 1 was assessed for its ability to inhibit the colony formation of cancer cells via a long-term colony forming assay. Cells and compounds were added to 96-well plates and were monitored for up to 8 weeks for the formation of colonies. Compound and media were replenished every 1 week throughout the course of the assay. Colony formation was detected via imaging at 4× on the IncuCyte ZOOM System. […] (FIGS. 210A-210D)."}, "AGS (gastric) cells": {"test_system": "AGS (gastric) cells", "assay": "Long term colony assay, AGS", "procedure": "as §1"}, "[1]": {"details": "Homo sapiens, NCI-H23, 72 h, NCI-H23 (Lung)"}, "[2]": {"details": "Homo sapiens, NCI-H28, 72 h, NCI-H28 (Lung)"}, "[3]": {"details": "Homo sapiens, NCI-H226, 72 h, NCI-H226 (Lung)"}, "[4]": {"details": "Homo sapiens, NCI-H441, 72 h, NCI-H441 (Lung)"}, "[5]": {"details": "Homo sapiens, NCI-H460, 72 h, NCI-H460 (Lung)"}, "[6]": {"details": "Homo sapiens, NCI-H520, 72 h, NCI-H520 (Lung)"}, "[7]": {"details": "Homo sapiens, NCI-H838, 72 h, NCI-H838 (Lung)"}, "[8]": {"details": "Homo sapiens, NCI-H1299, 72 h, NCI-H1299 (Lung)"}, "[9]": {"details": "Homo sapiens, NCI-H1703, 72 h, NCI-H1703 (Lung)"}, "[10]": {"details": "Homo sapiens, NCI-H1755, 72 h, NCI-H1755 (Lung)"}, "[11]": {"details": "Homo sapiens, NCI-H1975, 72 h, NCI-H1975 (Lung)"}, "[12]": {"details": "Homo sapiens, NCI-H2122, 72 h, NCI-H2122 (Lung)"}, "[13]": {"details": "Homo sapiens, PANC-1, 72 h, PANC-1 (Pancreas)"}, "[14]": {"details": "Homo sapiens, PLC-PRF-5, 72 h, PLC-PRF-5 (Liver)"}, "[15]": {"details": "Homo sapiens, RPMI-8226, 72 h, RPMI-8226 (Multiple myeloma)"}, "[16]": {"details": "Homo sapiens, SK-HEP1, 72 h, SK-HEP-1 (Liver)"}, "[17]": {"details": "Homo sapiens, SNU-182, 72 h, SNU-182 (Liver)"}, "[18]": {"details": "Homo sapiens, SNU-387, 72 h, SNU-387 (Liver)"}, "[19]": {"details": "Homo sapiens, SNU-398, 72 h, SNU-398 (Liver)"}, "[20]": {"details": "Homo sapiens, SNU-423, 72 h, SNU-423 (Liver)"}, "[21]": {"details": "Homo sapiens, SNU-449, 72 h, SNU-449 (Liver)"}, "[22]": {"details": "Homo sapiens, SNU-475, 72 h, SNU-475 (Liver)"}, "[23]": {"details": "Homo sapiens, SW48, 72 h, SW48 (Colon)"}, "[24]": {"details": "Homo sapiens, SW900, 72 h, SW900 (Lung)"}, "[25]": {"details": "Homo sapiens, SW1417, 72 h, SW1417 (Colon)"}, "[26]": {"details": "Homo sapiens, SW-620, 72 h, SW620 (Colon)"}, "[27]": {"details": "Mel202, 72 h, MEL-202 (Melanoma)"}},
  "note": "pIC50: −log10 of the molar value.",
  "data": [
    {"smiles": "C[C@]1(C(N)=O)CC[C@@H](n2c(Nc3c(Cl)cc(Cl)cc3Cl)nc3cnc(N[C@@H]4CCOC[C@H]4F)nc32)CC1", "note": "[Compound 1, cis-4-[2-{[(3S,4R)-3-fluorooxan-4-yl]amino}-8-(2,4,6-trichloroanilino)-9H-purin-9-yl]-1-methylcyclohexane-1-carboxamide]", "values": [
      {"measurement": "GI50", "setting": "64 cancer cell lines; [1]", "value": 36.4, "unit": "nM"},
      {"measurement": "pIC50", "setting": "64 cancer cell lines; [1]", "value": 6.74},
      {"measurement": "GI50", "setting": "64 cancer cell lines; [2]", "value": 1280, "unit": "nM"},
      {"measurement": "pIC50", "setting": "64 cancer cell lines; [2]", "value": 5.63},
      {"measurement": "GI50", "setting": "64 cancer cell lines; [3]", "value": 1630, "unit": "nM"},
      {"measurement": "pIC50", "setting": "64 cancer cell lines; [3]", "value": 5.21},
      {"measurement": "GI50", "setting": "64 cancer cell lines; [4]", "value": 184, "unit": "nM"},
      {"measurement": "pIC50", "setting": "64 cancer cell lines; [4]", "value": 5.20},
      {"measurement": "GI50", "setting": "64 cancer cell lines; [5]", "value": 244, "unit": "nM"},
      {"measurement": "pIC50", "setting": "64 cancer cell lines; [5]", "value": 6.19},
      {"measurement": "GI50", "setting": "64 cancer cell lines; [6]", "value": 5240, "unit": "nM"},
      {"measurement": "pIC50", "setting": "64 cancer cell lines; [6]", "value": 5.08},
      {"measurement": "GI50", "setting": "64 cancer cell lines; [7]", "value": 567, "unit": "nM"},
      {"measurement": "pIC50", "setting": "64 cancer cell lines; [7]", "value": 5.04},
      {"measurement": "GI50", "setting": "64 cancer cell lines; [8]", "value": 234, "unit": "nM"},
      {"measurement": "pIC50", "setting": "64 cancer cell lines; [8]", "value": 6.30},
      {"measurement": "GI50", "setting": "64 cancer cell lines; [9]", "value": 1350, "unit": "nM"},
      {"measurement": "pIC50", "setting": "64 cancer cell lines; [9]", "value": 5.77},
      {"measurement": "GI50", "setting": "64 cancer cell lines; [10]", "value": 40.4, "unit": "nM"},
      {"measurement": "pIC50", "setting": "64 cancer cell lines; [10]", "value": 7.23},
      {"measurement": "GI50", "setting": "64 cancer cell lines; [11]", "value": 2050, "unit": "nM"},
      {"measurement": "pIC50", "setting": "64 cancer cell lines; [11]", "value": 5.50},
      {"measurement": "GI50", "setting": "64 cancer cell lines; [12]", "value": 31.8, "unit": "nM"},
      {"measurement": "pIC50", "setting": "64 cancer cell lines; [12]", "value": 7.37},
      {"measurement": "GI50", "setting": "64 cancer cell lines; [13]", "value": 5440, "unit": "nM"},
      {"measurement": "pIC50", "setting": "64 cancer cell lines; [13]", "value": 5.00},
      {"measurement": "GI50", "setting": "64 cancer cell lines; [14]", "value": 888, "unit": "nM"},
      {"measurement": "pIC50", "setting": "64 cancer cell lines; [14]", "value": 5.40},
      {"measurement": "GI50", "setting": "64 cancer cell lines; [15]", "value": 3240, "unit": "nM"},
      {"measurement": "pIC50", "setting": "64 cancer cell lines; [15]", "value": 5.01},
      {"measurement": "GI50", "setting": "64 cancer cell lines; [16]", "value": 7040, "unit": "nM"},
      {"measurement": "pIC50", "setting": "64 cancer cell lines; [16]", "value": 5.00},
      {"measurement": "GI50", "setting": "64 cancer cell lines; [17]", "value": 76.4, "unit": "nM"},
      {"measurement": "pIC50", "setting": "64 cancer cell lines; [17]", "value": 5.30},
      {"measurement": "GI50", "setting": "64 cancer cell lines; [18]", "value": 33.2, "unit": "nM"},
      {"measurement": "pIC50", "setting": "64 cancer cell lines; [18]", "value": 6.98},
      {"measurement": "GI50", "setting": "64 cancer cell lines; [19]", "value": 265, "unit": "nM"},
      {"measurement": "pIC50", "setting": "64 cancer cell lines; [19]", "value": 5.71},
      {"measurement": "GI50", "setting": "64 cancer cell lines; [20]", "value": 6240, "unit": "nM"},
      {"measurement": "pIC50", "setting": "64 cancer cell lines; [20]", "value": 5.00},
      {"measurement": "GI50", "setting": "64 cancer cell lines; [21]", "value": 10000, "unit": "nM"},
      {"measurement": "pIC50", "setting": "64 cancer cell lines; [21]", "value": 5.00},
      {"measurement": "GI50", "setting": "64 cancer cell lines; [22]", "value": 9990, "unit": "nM"},
      {"measurement": "pIC50", "setting": "64 cancer cell lines; [22]", "value": 5.00},
      {"measurement": "GI50", "setting": "64 cancer cell lines; [23]", "value": 5.7, "unit": "nM"},
      {"measurement": "pIC50", "setting": "64 cancer cell lines; [23]", "value": 7.06},
      {"measurement": "GI50", "setting": "64 cancer cell lines; [24]", "value": 4.8, "unit": "nM"},
      {"measurement": "pIC50", "setting": "64 cancer cell lines; [24]", "value": 7.66},
      {"measurement": "GI50", "setting": "64 cancer cell lines; [25]", "value": 0.5, "unit": "nM"},
      {"measurement": "pIC50", "setting": "64 cancer cell lines; [25]", "value": 7.77},
      {"measurement": "GI50", "setting": "64 cancer cell lines; [26]", "value": 47, "unit": "nM"},
      {"measurement": "pIC50", "setting": "64 cancer cell lines; [26]", "value": 7.04},
      {"measurement": "GI50", "setting": "64 cancer cell lines; JHH1, 72 h, JHH-1 (Liver)", "value": 1.6, "unit": "nM"},
      {"measurement": "pIC50", "setting": "64 cancer cell lines; JHH1, 72 h, JHH-1 (Liver)", "value": 7.02},
      {"measurement": "GI50", "setting": "64 cancer cell lines; JHH7, 72 h, JHH-7 (Liver)", "value": 83.4, "unit": "nM"},
      {"measurement": "pIC50", "setting": "64 cancer cell lines; JHH7, 72 h, JHH-7 (Liver)", "value": 6.26},
      {"measurement": "GI50", "setting": "64 cancer cell lines; JHH-2, 72 h, JHH-2 (Liver)", "value": 129, "unit": "nM"},
      {"measurement": "pIC50", "setting": "64 cancer cell lines; JHH-2, 72 h, JHH-2 (Liver)", "value": 5.35},
      {"measurement": "GI50", "setting": "64 cancer cell lines; JHH-4, 72 h, JHH-4 (Liver)", "value": 363, "unit": "nM"},
      {"measurement": "pIC50", "setting": "64 cancer cell lines; JHH-4, 72 h, JHH-4 (Liver)", "value": 5.63},
      {"measurement": "GI50", "setting": "64 cancer cell lines; [27]", "value": 38.5, "unit": "nM"},
      {"measurement": "pIC50", "setting": "64 cancer cell lines; [27]", "value": 7.01},
      {"measurement": "inhibition of colony formation vs trametinib and GDC0994", "setting": "SW48 (colo) cells", "value": "greater levels of inhibition than seen with treatment with MEK inhibitors or ERK inhibitors"},
      {"measurement": "inhibition of colony formation vs trametinib and GDC0994", "setting": "AGS (gastric) cells; AGS, up to 8 weeks", "value": "greater levels of inhibition than seen with treatment with MEK inhibitors or ERK inhibitors"},
      {"measurement": "colony formation of AGS cells resistant to trametinib", "setting": "AGS (gastric) cells; trametinib-resistant AGS cells", "value": "inhibit colony formation"}
    ]}
  ]
}
